What follows are compounds tested against T1, recombinant human NK3 receptor (Homo sapiens, UniProt P29371) (assay: [3H]SR142801 competition binding assay). Details: not given.
T1 construct: expressed in transfected cells; host or cells: HEK293 cells, transient expression; membranes
T1 sequence (P29371 1-465): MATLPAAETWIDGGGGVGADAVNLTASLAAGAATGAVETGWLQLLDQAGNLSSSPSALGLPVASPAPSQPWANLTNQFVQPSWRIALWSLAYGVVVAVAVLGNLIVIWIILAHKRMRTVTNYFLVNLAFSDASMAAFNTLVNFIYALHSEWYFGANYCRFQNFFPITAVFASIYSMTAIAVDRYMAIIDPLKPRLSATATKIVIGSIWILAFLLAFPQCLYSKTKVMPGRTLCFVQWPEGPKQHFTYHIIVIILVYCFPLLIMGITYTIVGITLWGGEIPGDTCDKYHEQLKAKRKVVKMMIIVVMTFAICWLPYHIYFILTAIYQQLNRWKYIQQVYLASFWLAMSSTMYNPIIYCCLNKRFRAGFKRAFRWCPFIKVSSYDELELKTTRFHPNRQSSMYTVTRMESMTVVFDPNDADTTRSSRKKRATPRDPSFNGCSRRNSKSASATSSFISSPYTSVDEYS

Compound	Ki [nM]
CN(C(=O)Oc1ccc(F)cc1)[C@@H]1CN(C(=O)C2CCN(c3ccc(Cl)cn3)CC2)C[C@H]1c1ccc(F)c(Cl)c1 [Example 316, [(3S,4R)-4-(3-Chloro-4-fluoro-phenyl)-1-(5′-chloro-3,4,5,6-tetrahydro-2H-[1,2′]bipyridinyl-4-carbonyl)-pyrrolidin-3-yl]-methyl-carbamic acid 4-fluoro-phenyl ester]	0.9
CC(C)COC(=O)N(C)[C@@H]1CN(C(=O)C2CCN(C(=O)C3(C)CC3)CC2)C[C@H]1c1ccc(Cl)cc1 [Example 141, {(3S,4R)-4-(4-Chloro-phenyl)-1-[1-(1-methyl-cyclopropanecarbonyl)-piperidine-4-carbonyl]-pyrrolidin-3-yl}-methyl-carbamic acid isobutyl ester]	13.5
CN(C(=O)Oc1ccc(F)cc1)[C@@H]1CN(C(=O)C2CCN(C(=O)C3CC(F)C3)CC2)C[C@H]1c1ccc(Cl)c(Cl)c1 (stereo partly drawn) [Example 267, {(3S,4R)-4-(3,4-Dichloro-phenyl)-1-[1-(3-fluoro-cyclobutanecarbonyl)-piperidine-4-carbonyl]-pyrrolidin-3-yl}-methyl-carbamic acid 4-fluoro-phenyl ester]	0.7
CN(C(=O)Oc1ccc(Cl)cc1)[C@@H]1CN(C(=O)C2CCN(c3ccc(C#N)cn3)CC2)C[C@H]1c1ccc(Cl)cc1 [Example 203, [(3S,4R)-4-(4-Chloro-phenyl)-1-(5′-cyano-3,4,5,6-tetrahydro-2H-[1,2′]bipyridinyl-4-carbonyl)-pyrrolidin-3-yl]-methyl-carbamic acid 4-chloro-phenyl ester]	0.3
CN(C(=O)OCC1CCOC1)[C@@H]1CN(C(=O)C2CCN(c3ccc(C#N)cn3)CC2)C[C@H]1c1ccc(Cl)cc1 (stereo partly drawn) [Example 233, [(3S,4R)-4-(4-Chloro-phenyl)-1-(5′-cyano-3,4,5,6-tetrahydro-2H-[1,2′]bipyridinyl-4-carbonyl)-pyrrolidin-3-yl]-methyl-carbamic acid tetrahydro-furan-3-ylmethyl ester]	6
CN(C(=O)Oc1ccc(F)cc1)[C@@H]1CN(C(=O)C2CCN(C(=O)CC#N)CC2)C[C@H]1c1ccc(Cl)cc1 [Example 253, {(3S,4R)-4-(4-Chloro-phenyl)-1-[1-(2-cyano-acetyl)-piperidine-4-carbonyl]-pyrrolidin-3-yl}-methyl-carbamic acid 4-fluoro-phenyl ester]	1.8
CN(C(=O)Oc1ccc(C#N)cc1F)[C@@H]1CN(C(=O)C2CCN(c3ccc(C#N)cn3)CC2)C[C@H]1c1ccc(Cl)cc1 [Example 237, [(3S,4R)-4-(4-Chloro-phenyl)-1-(5′-cyano-3,4,5,6-tetrahydro-2H-[1,2′]bipyridinyl-4-carbonyl)-pyrrolidin-3-yl]-methyl-carbamic acid 4-cyano-2-fluoro-phenyl ester]	0.4
CN(C(=O)Oc1ccc(F)cc1)[C@@H]1CN(C(=O)C2CCN(c3ccc(C(F)(F)F)cn3)CC2)C[C@H]1c1ccc(Cl)c(F)c1 [Example 313, [(3S,4R)-4-(4-Chloro-3-fluoro-phenyl)-1-(5′-trifluoromethyl-3,4,5,6-tetrahydro-2H-[1,2′]bipyridinyl-4-carbonyl)-pyrrolidin-3-yl]-methyl-carbamic acid 4-fluoro-phenyl ester]	0.9
CN(C(=O)Oc1ccc(F)cc1)[C@@H]1CN(C(=O)C2CCN(c3ccc(O)cn3)CC2)C[C@H]1c1ccc(Cl)cc1 [Example 320, [(3S,4R)-4-(4-Chloro-phenyl)-1-(5′-hydroxy-3,4,5,6-tetrahydro-2H-[1,2′]bipyridinyl-4-carbonyl)-pyrrolidin-3-yl]-methyl-carbamic acid 4-fluoro-phenyl ester]	6.7
CN(C(=O)Oc1ccc(F)cc1)[C@@H]1CN(C(=O)C2CCN(C(=O)c3ccc(F)cn3)CC2)C[C@H]1c1ccc(Cl)cc1 [Example 262, {(3S,4R)-4-(4-Chloro-phenyl)-1-[1-(5-fluoro-pyridine-2-carbonyl)-piperidine-4-carbonyl]-pyrrolidin-3-yl}-methyl-carbamic acid 4-fluoro-phenyl ester]	3.9
CN(C(=O)OCCC(F)(F)F)[C@@H]1CN(C(=O)C2CCN(C(=O)C3(C)CC3)CC2)C[C@H]1c1ccc(Cl)c(Cl)c1 (stereo in doubt) [Example 87, {(3S,4R)-4-(3,4-Dichloro-phenyl)-1-[1-(1-methyl-cyclopropanecarbonyl)-piperidine-4-carbonyl]-pyrrolidin-3-yl}-methyl-carbamic acid 3,3,3-trifluoro-propyl ester]	9.2
CN(C(=O)Oc1ccc(F)cc1)[C@H]1CN(C(=O)C2CCN(C(=O)C3(C)CC3)CC2)C[C@@H]1c1ccc(Cl)c(Cl)c1 [Example 5, {(3R,4S)-4-(3,4-Dichloro-phenyl)-1-[1-(1-methyl-cyclopropanecarbonyl)-piperidine-4-carbonyl]-pyrrolidin-3-yl}-methyl-carbamic acid 4-fluoro-phenyl ester]	56.2
COc1ccc(OC(=O)N(C)[C@H]2CN(C(=O)C3CCN(CC4CC4)CC3)C[C@@H]2c2ccc(Cl)c(Cl)c2)cc1 [Example 20, [(3R,4S)-1-(1-Cyclopropylmethyl-piperidine-4-carbonyl)-4-(3,4-dichloro-phenyl)-pyrrolidin-3-yl]-methyl-carbamic acid 4-methoxy-phenyl ester]	72.4
CN(C(=O)Oc1ccc(S(C)(=O)=O)cc1)[C@@H]1CN(C(=O)C2CCN(c3ccc(C#N)cn3)CC2)C[C@H]1c1ccc(Cl)cc1 [Example 224, [(3S,4R)-4-(4-Chloro-phenyl)-1-(5′-cyano-3,4,5,6-tetrahydro-2H-[1,2′]bipyridinyl-4-carbonyl)-pyrrolidin-3-yl]-methyl-carbamic acid 4-methanesulfonyl-phenyl ester]	22.8
CN(C(=O)Oc1ccc(F)cc1)[C@@H]1CN(C(=O)C2CCN(C(=O)C3CCOC(C)(C)C3)CC2)C[C@H]1c1ccc(Cl)c(Cl)c1 (stereo partly drawn) [Example 276, {(3S,4R)-4-(3,4-Dichloro-phenyl)-1-[1-(2,2-dimethyl-tetrahydro-pyran-4-carbonyl)-piperidine-4-carbonyl]-pyrrolidin-3-yl}-methyl-carbamic acid 4-fluoro-phenyl ester]	1
CN(C(=O)OC1CC(F)(F)C1(F)F)[C@@H]1CN(C(=O)C2CCN(c3ccc(C#N)cn3)CC2)C[C@H]1c1ccc(Cl)cc1 (stereo partly drawn) [Example 176, [(3S,4R)-4-(4-Chloro-phenyl)-1-(5′-cyano-3,4,5,6-tetrahydro-2H-[1,2′]bipyridinyl-4-carbonyl)-pyrrolidin-3-yl]-methyl-carbamic acid 2,2,3,3-tetrafluorocyclobutyl ester]	4.6
CN(C(=O)Oc1ccc(F)cc1)[C@@H]1CN(C(=O)C2CCN(C(=O)C3CCC3)CC2)C[C@H]1c1ccc(Cl)cc1 [Example 247, [(3S,4R)-4-(4-Chloro-phenyl)-1-(1-cyclobutanecarbonyl-piperidine-4-carbonyl)-pyrrolidin-3-yl]-methyl-carbamic acid 4-fluoro-phenyl ester]	0.9
COc1ccc(N2CCC(C(=O)N3C[C@@H](N(C)C(=O)Oc4ccc(F)cc4)[C@H](c4ccc(Cl)cc4)C3)CC2)nn1 [Example 197, {(3S,4R)-4-(4-Chloro-phenyl)-1-[1-(6-methoxy-pyridazin-3-yl)-piperidine-4-carbonyl]-pyrrolidin-3-yl}-methyl-carbamic acid 4-fluoro-phenyl ester]	2.6
CN(C(=O)OCCCC(F)(F)F)[C@@H]1CN(C(=O)C2CCN(c3ccc(C(=O)NC(C)(C)C)cn3)CC2)C[C@H]1c1ccc(Cl)cc1 (racemic) [Example 124, rac-[(3S,4R)-1-(5′-tert-Butylcarbamoyl-3,4,5,6-tetrahydro-2H-[1,2′]bipyridinyl-4-carbonyl)-4-(4-chloro-phenyl)-pyrrolidin-3-yl]-methyl-carbamic acid 4,4,4-trifluoro-butyl ester]	40.2
CN(C(=O)Oc1ccc(F)cc1)[C@@H]1CN(C(=O)C2CCN(C(=O)C3CC3(C)C)CC2)C[C@H]1c1ccc(Cl)cc1 (stereo partly drawn) [Example 260, {(3S,4R)-4-(4-Chloro-phenyl)-1-[1-(2,2-dimethyl-cyclopropanecarbonyl)-piperidine-4-carbonyl]-pyrrolidin-3-yl}-methyl-carbamic acid 4-fluoro-phenyl ester]	1.5

Same assay, conditions: hNK-3 receptor affinity; membranes from HEK293 cells transiently expressing recombinant human NK3 receptor; [3H]SR142801; Cheng-Prussoff; read-out: Data Ki

Compound	Ki [nM]
CN(C(=O)O[C@H]1CC[C@H](C(F)(F)F)CC1)[C@H]1CN(C(=O)C2CCN(c3ccc(C#N)cn3)CC2)C[C@@H]1c1ccc(Cl)cc1 [Example 125, [(3R,4S)-4-(4-Chloro-phenyl)-1-(5′-cyano-3,4,5,6-tetrahydro-2H-[1,2′]bipyridinyl-4-carbonyl)-pyrrolidin-3-yl]-methyl-carbamic acid 4-trifluoromethyl-cyclohexyl ester]	50.9
CN(C(=O)OCCC1CC1)[C@H]1CN(C(=O)C2CCN(C(=O)C3(C)CC3)CC2)C[C@@H]1c1ccc(Cl)c(Cl)c1 (racemic) [Example 25, rac-{(3R,4S)-4-(3,4-Dichloro-phenyl)-1-[1-(1-methyl-cyclopropanecarbonyl)-piperidine-4-arbonyl]-pyrrolidin-3-yl}-methyl-carbamic acid 2-cyclopropyl-ethyl ester]	5.4
CN(C(=O)OCCCC(F)(F)F)[C@@H]1CN(C(=O)C2CCN(C(=O)C3(C)CC3)CC2)C[C@H]1c1ccc(Cl)c(Cl)c1 [Example 82, {(3S,4R)-4-(3,4-Dichloro-phenyl)-1-[1-(1-methyl-cyclopropanecarbonyl)-piperidine-4-carbonyl]-pyrrolidin-3-yl}-methyl-carbamic acid 4,4,4-trifluoro-butyl ester]	1.4

From US9226916B2, “Pyrrolidine derivatives” (HOFFMANN-LA ROCHE INC., priority 2009, dated 2016)
